Reference: PubChem BioAssay (NCI)
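These data come from cells grown in 96-well plates and exposed to compound for 48 hours at five concentrations. Abbreviation: GI50, concentration required for 50% inhibition of growth. TGI marks complete inhibition of growth.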

Columns and labels:
Experiment in all cases: DTP human tumour cell line panel, 48 h
[1] = test system: OVCAR-8 ovarian
[2] = test system: HCT-15 colon
[3] = test system: K-562 leukemia
[4] = test system: A549 NSCLC
[5] = test system: SK-MEL-2 melanoma
[6] = test system: ACHN renal
[7] = test system: OVCAR-3 ovarian
[8] = test system: MDA-MB-231 breast
[9] = test system: U251 CNS
[10] = test system: BT-549 breast
[11] = test system: HCT-116 colon
[12] = test system: LOX IMVI melanoma
[13] = test system: MDA-MB-468 breast
[14] = test system: HOP-62 NSCLC
[15] = test system: CAKI-1 renal
[16] = test system: SK-OV-3 ovarian
[17] = test system: NCI-H522 lung
[18] = test system: HOP-92 NSCLC
[19] = test system: SR leukemia
[20] = test system: NCI-H460 lung
[21] = test system: MCF7 breast
[22] = test system: IGROV1 ovarian
[23] = test system: SK-MEL-5 melanoma
[24] = test system: HS 578T breast
[25] = test system: NCI-H23 lung
[26] = test system: M14 melanoma
[27] = test system: UACC-257 melanoma
[28] = test system: PC-3 prostate
[29] = test system: NCI-H226 lung
[30] = test system: RPMI-8226 leukemia
[31] = test system: SN12C renal
[32] = test system: SNB-19 CNS
[33] = test system: SF-539 CNS
[34] = test system: 786-0 renal
[35] = test system: EKVX NSCLC
[36] = test system: SF-295 CNS
[37] = test system: SNB-75 CNS
[38] = test system: CCRF-CEM leukemia
[39] = test system: T-47D breast
[40] = test system: UACC-62 melanoma
[41] = test system: NCI/ADR-RES ovarian
[42] = test system: DU-145 prostate
[43] = test system: SW-620 colon
[44] = test system: KM12 colon
[45] = test system: MDA-MB-435
[46] = test system: HL-60(TB) leukemia
[47] = test system: RXF 393 renal
[48] = test system: UO-31 renal
[49] = test system: MOLT-4 leukemia
[50] = test system: OVCAR-5 ovarian
[51] = test system: OVCAR-4 ovarian
[52] = test system: HT29 colon
[53] = test system: A498 renal
[54] = test system: SK-MEL-28 melanoma
[55] = test system: HCC-2998 colon
[56] = test system: MALME-3M melanoma
[57] = test system: SF-268 CNS
[58] = test system: COLO 205 colon
[59] = test system: TK-10 renal

O=C(COc1ccc(NC(=O)Nc2ccc(Cl)c(Cl)c2)cc1)N=Nc1c(O)[nH]c2ccc(Cl)cc12
GI50 [1]: 2.3 µM | TGI [1]: 5.36 µM | GI50 [2]: 7.94 µM | TGI [2]: > 100 µM | GI50 [3]: 2.77 µM | TGI [3]: 7.1 µM | GI50 [4]: 2.61 µM | TGI [4]: 7.01 µM | GI50 [5]: 2.07 µM | TGI [5]: 4.83 µM | GI50 [6]: 3.23 µM | TGI [6]: 11.4 µM | GI50 [7]: 1.97 µM | TGI [7]: 4.1 µM | GI50 [8]: 1.93 µM | TGI [8]: 3.57 µM | GI50 [9]: 1.9 µM | TGI [9]: 3.79 µM | GI50 [10]: 1.62 µM | TGI [10]: 3.3 µM | GI50 [11]: 1.85 µM | TGI [11]: 3.47 µM | GI50 [12]: 1.73 µM | TGI [12]: 3.23 µM | GI50 [13]: 1.84 µM | TGI [13]: 3.54 µM | GI50 [14]: 1.78 µM | TGI [14]: 3.65 µM | GI50 [15]: 2.21 µM | TGI [15]: 4.89 µM | GI50 [16]: 2.19 µM | TGI [16]: 4.98 µM | GI50 [17]: 1.74 µM | TGI [17]: 3.57 µM | GI50 [18]: 2.18 µM | TGI [18]: 4.87 µM | GI50 [19]: 2.18 µM | TGI [19]: 9.97 µM | GI50 [20]: 1.92 µM | TGI [20]: 4.07 µM | GI50 [21]: 2.08 µM | TGI [21]: 5 µM | GI50 [22]: 2.31 µM | TGI [22]: 5.73 µM | GI50 [23]: 1.72 µM | TGI [23]: 3.18 µM | GI50 [24]: 2.33 µM | TGI [24]: 6.36 µM | GI50 [25]: 2.08 µM | TGI [25]: 4.4 µM | GI50 [26]: 1.81 µM | TGI [26]: 3.71 µM | GI50 [27]: 2 µM | TGI [27]: 4.15 µM | GI50 [28]: 2.1 µM | TGI [28]: 5.07 µM | GI50 [29]: 2.06 µM | TGI [29]: 4.59 µM | GI50 [30]: 2.44 µM | TGI [30]: 6.2 µM | GI50 [31]: 1.93 µM | TGI [31]: 3.67 µM | GI50 [32]: 2.66 µM | TGI [32]: 7.49 µM | GI50 [33]: 1.78 µM | TGI [33]: 3.4 µM | GI50 [34]: 1.78 µM | TGI [34]: 3.8 µM | GI50 [35]: 2.65 µM | TGI [35]: 9.28 µM | GI50 [36]: 1.81 µM | TGI [36]: 3.54 µM | GI50 [37]: 1.58 µM | TGI [37]: 3.49 µM | GI50 [38]: 2.27 µM | TGI [38]: 5.54 µM | GI50 [39]: 2.01 µM | TGI [39]: 4.76 µM | GI50 [40]: 1.98 µM | TGI [40]: 4.45 µM | GI50 [41]: > 100 µM | TGI [41]: > 100 µM | GI50 [42]: 2.96 µM | TGI [42]: 8.81 µM | GI50 [43]: 1.79 µM | TGI [43]: 3.59 µM | GI50 [44]: 1.98 µM | TGI [44]: 4.38 µM | GI50 [45]: 1.8 µM | TGI [45]: 3.68 µM | GI50 [46]: 2.05 µM | TGI [46]: 5.31 µM | GI50 [47]: 1.62 µM | TGI [47]: 3.13 µM | GI50 [48]: 22.5 µM | TGI [48]: > 100 µM | GI50 [49]: 1.84 µM | TGI [49]: 4.5 µM | GI50 [50]: 2.11 µM | TGI [50]: 5.39 µM | GI50 [51]: 2.26 µM | TGI [51]: 6.15 µM | GI50 [52]: 1.89 µM | TGI [52]: 3.58 µM | GI50 [53]: 2.06 µM | TGI [53]: 5.28 µM | GI50 [54]: 1.89 µM | TGI [54]: 3.86 µM | GI50 [55]: 2.58 µM | TGI [55]: 7.1 µM | GI50 [56]: 1.68 µM | TGI [56]: 3.1 µM | GI50 [57]: 2.23 µM | TGI [57]: 5.18 µM | GI50 [58]: 1.76 µM | TGI [58]: 3.35 µM | GI50 [59]: 2.86 µM | TGI [59]: 9.89 µM
